This passage reports Km results from publication PMC9235088, “Characterization of a new L-carnosine synthase mined from deep-sea sediment metagenome” (Microbial Cell Factories, 2022).

For the assay, the system named is T1, gene_236976 product (L-carnosine synthase, L-aminopeptidase).
T1 construct: codon-optimised synthetic gene in pET-26b (NcoI/XhoI), his6-tagged, E. coli BL21(DE3), Ni-agarose purified
As to the kind of experiment: HPLC of L-carnosine formed, Michaelis-Menten fit. In kind it is biochemical, metagenome: deep-sea sediment. Conditions: 100 mM β-AlaOMe, 0-400 mM L-histidine; assay buffer Na2CO3/NaHCO3 pH 10.0, 30 °C; read-out: L-histidine^b / Km. The text has this:
HPLC of L-carnosine formed, Michaelis-Menten fit on gene_236976 product (L-carnosine synthase, L-aminopeptidase)

For `N[C@@H](Cc1cnc[nH]1)C(=O)O` [L-histidine], the Km came out at 7.73 ± 0.29 mM.
